“And” between values parts separate entries of the source, which are not always exact repeats. Equal values may be shown once.
Legend:
xMuLV [1] = assay: Temperature-dependent study, TCID50 LRV in host cell culture fluid matrices; assay type: cell-based, xenotropic murine leukemia virus; details: for Viral inactivation in the presence of therapeutic modalities: between 30 seconds and 30 minutes, temperatures as low as 5° C. and 15° C.; for Inactivation at 30 minutes at both 5° C. and 15° C.: mAb, BiTE ®, fusion protein matrices
xMuLV [2] = assay: Kinetic study of detergents, TCID50 LRV in host cell culture fluid matrices; assay type: cell-based, xenotropic murine leukemia virus
xMuLV [3] = assay type: cell-based, xenotropic murine leukemia virus; details: initial screen, 10× CMC or 10% w/v, 30 minutes, 15° C., 5% virus spike, PG4 cells
xMuLV [4] = assay: Concentration study, lowest concentration to inactivate virus; assay type: cell-based, xenotropic murine leukemia virus; details: 15° C., 30-minute incubation
[5] = Turbidity of detergent spiked HCCF; assay type: physicochemical; details: HCCF spiked at five times CMC, room temperature 5 days and 2-8° C. 7 days
Protocol: Determination of turbidity was used to measure the stability of detergent spiked samples. Increased turbidity of the sample would reflect a precipitation of the protein molecule. 100 mL of harvested cell culture fluid (HCCF) collected from cultures of each molecule were subjected to four conditions: HCCF containing no detergent (control), APO128, APO129 and Triton X-100. The detergents were spiked at five times the detergent's critical micelle concentration (CMC) values, Triton-X: […] Two sample sets were generated for each molecule; one set was kept at room temperature for 5 days. The second set was kept at 2-8° C. for 7 days. The turbidity of each sample was measured using a turbidimeter (Hach Turbidime[…] 46500-00, Loveland, CO) on days 0, 1, 2, 5, and 7.

PRV = assay type: cell-based, pseudorabies herpes virus
MMV = assay: Concentration study, lowest concentration to inactivate virus; assay type: cell-based, mouse minute virus
[6] = as indicated by the Hampton Kit; cited from earlier work

Compound	LRV BiTE ® (xMuLV [1]; 5° C., 30 minutes, 5× CMC)	LRV fusion protein (xMuLV [1]; 5° C., 30 minutes, 5× CMC)	LRV mAb (xMuLV [1]; 5° C., 30 minutes, 5× CMC)	LRV BiTE ® (xMuLV [1]; 15° C., 30 minutes, 5× CMC)	LRV fusion protein (xMuLV [1]; 15° C., 30 minutes, 5× CMC)	LRV mAb (xMuLV [1]; 15° C., 30 minutes, 5× CMC)	Viral inactivation in the presence of therapeutic modalities (xMuLV [1])	Inactivation at 30 minutes at both 5° C. and 15° C. (xMuLV [1])	LRV 30 s (xMuLV [2]; BiTE ® #1, 15° C.)	LRV 10 min (xMuLV [2]; BiTE ® #1, 15° C.)	LRV 30 min (xMuLV [2]; BiTE ® #1, 15° C.)	LRV 30 s (xMuLV [2]; fusion protein #1, 15° C.)	LRV 10 min (xMuLV [2]; fusion protein #1, 15° C.)	LRV 30 min (xMuLV [2]; fusion protein #1, 15° C.)	LRV 30 s (xMuLV [2]; mAb #1, 15° C.)	LRV 10 min (xMuLV [2]; mAb #1, 15° C.)	LRV 30 min (xMuLV [2]; mAb #1, 15° C.)	Cytopathic effects (CPE) at 2.5×CMC (xMuLV [4])	Precipitation of protein modalities (turbidity) [5]	Cytopathic effects (CPE) at 2.5×CMC (PRV)	other results
Polyoxyethylene(9)dodecyl ether [Anapoe C12E9]	≥3.84 ± 0.33	≥4.19 ± 0.25	≥3.91 ± 0.30	≥3.91 ± 0.43	≥4.32 ± 0.36	≥4.23 ± 0.38	complete viral inactivation	complete inactivation	2.61 ± 0.68	≥2.91 ± 0.43	≥2.91 ± 0.43	2.56 ± 0.60	≥3.32 ± 0.36	≥3.32 ± 0.36	≥3.23 ± 0.00	≥3.23 ± 0.00	≥3.23 ± 0.00	showed cytopathic effects (CPE)	none of the detergents tested caused precipitation	showed cytopathic effects (CPE)	Time to complete inactivation of xMuLV (xMuLV [2]; BiTE® #1): ≤ 10 min; Time to complete clearance of xMuLV (xMuLV [2]; all three therapeutic modalities): ≤ 10 min; Time to complete inactivation of xMuLV (xMuLV [2]; fusion protein #1): ≤ 10 min; Time to complete inactivation of xMuLV (xMuLV [2]; mAb #1): 0.5 min; Viral inactivation towards xMuLV (CPE) (xMuLV [3]): robustly inactivate the virus; Cytopathic effects (CPE) at 2.5×CMC (MMV): showed cytopathic effects (CPE); CMC [6]: 0.05 mM
CCCCCCCS[C@@H]1O[C@H](CO)[C@@H](O)[C@H](O)[C@H]1O [N-heptyl-β-D-thioglucopyranoside, Heptyl-β-D-1-thioglucopyranoside]	≥4.23 ± 0.33	≥4.07 ± 0.30	≥4.09 ± 0.25	≥4.03 ± 0.18	≥4.16 ± 0.42	≥4.22 ± 0.41	complete viral inactivation	complete inactivation	≥3.03 ± 0.18	≥3.03 ± 0.18	≥3.03 ± 0.18	≥3.16 ± 0.42	≥3.16 ± 0.42	≥3.16 ± 0.42	≥3.22 ± 0.41	≥3.22 ± 0.41	≥3.22 ± 0.41	showed cytopathic effects (CPE)		showed cytopathic effects (CPE)	Cytopathic effects (CPE) at 2.5×CMC (MMV): showed cytopathic effects (CPE); CMC [6]: 29 mM
polyoxyethylene octyl phenol ether [Triton X-100, reference compound]																			none of the detergents tested caused precipitation		LRV fusion protein (xMuLV [1]; Triton X-100 control, 7° C., 800-sample large volume plate (1 LRV increase), Run 1 and Run 2): 5.03 ± 0.58 and 5.04 ± 0.57
CCCCCCCCCCCCOCCOCCOCCOCCOCCOCCOCCOCCO [Anapoe C12E8, 3,6,9,12,15,18,21,24-oxtaoxahexatriacontan-1-ol]	≥4.03 ± 0.18	≥4.23 ± 0.33	≥4.41 ± 0.37	≥4.32 ± 0.35	≥4.99 ± 0.42	≥3.28 ± 0.34	complete viral inactivation	complete inactivation	≥3.32 ± 0.35	≥3.32 ± 0.35	≥3.32 ± 0.35	≥3.99 ± 0.42	≥3.99 ± 0.42	≥3.99 ± 0.42	≥3.28 ± 0.34	≥3.28 ± 0.34	≥3.28 ± 0.34	showed cytopathic effects (CPE)	none of the detergents tested caused precipitation	showed cytopathic effects (CPE)	Viral inactivation towards xMuLV (CPE) (xMuLV [3]): robustly inactivate the virus; Cytopathic effects (CPE) at 2.5×CMC (MMV): showed cytopathic effects (CPE); CMC [6]: 0.11 mM

— patent US12649907B2, “Alternate detergents for viral inactivation” (AMGEN INC., priority 2019, dated 2026)
